Assay results as given in patent US7335668B2, “Pharmaceutical composition for therapy of interstitial cystitis” (priority 2001, dated 2008).

Assays:
[1] = test system: capsaicin-sensitive sensory nerve; assay: Plasma protein extravasation induced by capsaicin in the mouse bladder (Evans blue); format: in vivo; conditions: for reduction of capsaicin-induced increase in Evans blue dye content in the bladder: female Balb/c mice, 100 μL, about one hour before capsaicin 300 μg/kg i.v.; for intravesical concentration that inhibited extravascular leakage of plasma proteins (depressant action on capsaicin-sensitive sensory nerve): mouse bladder, infused intravesically
Protocol: In the experiment, four or five female Balb/c mice (Japan SLC, Inc.) per group were used. A catheter was inserted into the bladder of a mouse anesthetized with urethane (intraperitoneally administered with 0.15 ml of a 20% solution per mouse) via the urethra, and after emptying the bladder, a physiological saline or drug solution was injected. This catheter was prepared by blunting the tip of a 24-guage hypodermic needle and making a side hole at 2 mm from the newly prepared tip. About one hour after the instillation into the bladder, extravascular leakage of plasma proteins due to inflammatory reaction caused by stimulation of the capsaicin-sensitive sensory nerve according to the method of Maggi, et al. (Nauny-Schmiedeberg's Arch. Pharmacol., 336: pp.546-555(1987)). That is Evans blue (30 mg/kg) a dye bound by plasma proteins and capsaicin (300 μg/kg) were administered to the mouse from the tail vein, and precisely five minutes after the administration, the mouse was killed by cervical dislocation, then the bladder was removed. After removing urine and blood remaining in the tissue, the dye in the organs was quantitatively determined. Evans blue dye was extracted from the bladder by placing the tissue in 150 μL of formamide overnight, and was quantitatively determined by measuring light absorbance at a wavelength of 620 nm of 100 μL supernatant in a 96-well microplate. In addition, the content of Evans blue dye in one milligram of wet tissue was calculated. Moreover, the mouse intravesically instilled with physiological saline and intravenously administered with a capsaicin-free Evans blue solution served as a normal control. […] Capsaicin and formamide were purchased from Wako Pure Chemical Industries, Ltd., and Evans blue was purchased from Aldrich. […] Results were shown as [(mean values)±(standard errors of the mean)]. The Student's t-test was used to determine the significance of difference between the group of mice receiving […] saline and stimulated with capsaicin e and the group of normal control mice.

[2] = test system: rhythmic bladder contraction; conditions: as disclosed in International Patent Publication No. 96/20194; cited from earlier work

Structure (SMILES) | reduction of capsaicin-induced increase in Evans blue dye content in the bladder ([1]; injected intravesically at 1 μM) [%] | reduction of capsaicin-induced increase in Evans blue dye content in the bladder ([1]; injected intravesically at 10 μM) [%] | reduction of capsaicin-induced increase in Evans blue dye content in the bladder ([1]; injected intravesically at 100 μM) [%] | intravesical concentration that inhibited extravascular leakage of plasma proteins (depressant action on capsaicin-sensitive sensory nerve) [1] [µM] | effect on rat rhythmic bladder contraction [2]
O=C(O[C@H]1CN2CCC1CC2)N1CCc2ccccc2[C@@H]1c1ccccc1 [Compound 1, (+)-(1S,3′R)-quinuclidin-3′-yl 1-phenyl-1,2,3,4-tetrahydroisoquinoline-2-carboxylate] | 52 | 76 | 80 | ≥ 1 | 
O=C(OC1CN2CCC1CC2)N1CCc2ccccc2C1c1ccccc1 (stereo not drawn) [Compound A, quinuclidin-3′-yl 1-phenyl-1,2,3,4-tetrahydroisoquinoline-2-carboxylate] |  |  |  | ≥ 1 | inhibitory effects on rat rhythmic bladder contraction
